Assay results published in patent publication US10722479B2, “Dimethoxyphenyl inhibitors of vesicular monoamine transporter 2” (AUSPEX PHARMACEUTICALS, INC., priority 2015, dated 2020).

Experiment: In vitro liver microsomal stability assay
Settings: human liver microsomes 0.5 mg per mL, NADPH 2 mM, pH 7.4, 1 uM compound, 37° C.; relative to d0 (Example 1)
Method: In Vitro Liver Microsomal Stability Assay
Human liver microsomal stability assays were conducted at 0.5 mg per mL liver microsome protein with NADPH (2 mM, pH 7.4).
Reactions were initiated with the addition of NADPH cofactor and were stopped at 0, 5, 15, 20 or 30 min after cofactor addition with stop reagent, acetonitrile. After quenching, plates containing samples were vibrated for 10 min (600 rpm/min) and then centrifuged at 5594 g for 15 min. Supernatant fractions were analyzed by LC-MS/MS to determine the percent remaining and estimate the degradation half-life of the test compounds.

Compound | Clearance % change over d0 [%] | Half-life % change over d0 [%]
[2H]C([2H])([2H])Oc1ccc(CCNCC(O)COc2cccc(C([2H])([2H])[2H])c2)cc1OC([2H])([2H])[2H] (stereo not shown) [Example 4, [2-[3,4-bis(^2H6)methoxyphenyl]ethyl]([2-hydroxy-3-[3-(^2H3)methylphenoxy]propyl])amine] | −21.15 | 26.83
[2H]C([2H])([2H])Oc1ccc(CCNCC(O)COc2cccc(C)c2)cc1OC([2H])([2H])[2H] (stereo not shown) [Example 2, [2-[3,4-bis(^2H6)methoxyphenyl]ethyl][2-hydroxy-3-(3-methylphenoxy)propyl]amine] | 1.68 | −1.65
[2H]C([2H])([2H])Oc1ccc(CCNC([2H])([2H])C([2H])(O)C([2H])([2H])Oc2cccc(C)c2)cc1OC([2H])([2H])[2H] (stereo not shown) [Example 5, 1-([2-[3,4-bis(^2H6)methoxyphenyl]ethyl]amino)-3-(3-methylphenoxy)(^2H5) propan-2-ol] | 0.85 | −0.84
[2H]C([2H])([2H])c1cccc(OCC(O)CNCCc2ccc(OC)c(OC)c2)c1 (stereo not shown) [Example 3, [2-(3,4-dimethoxyphenyl)ethyl]([2-hydroxy-3-[3-(2H3)methylphenoxy]propyl])amine] | −4.71 | 4.95
COc1ccc(CCNCC(O)COc2cccc(C)c2)cc1OC (stereo not shown) [Example 1, [2-(3,4-dimethoxyphenyl)ethyl][2-hydroxy-3-(3-methylphenoxy)propyl]amine, reference compound] | 0.00 | 0.00
